The results in this text go back to ChEMBL document CHEMBL1201862, “PubChem BioAssay data set” (2004).

Some test systems named below: HT-29; SK-OV-3; UACC-257; HOP-92; OVCAR-3; OVCAR-8; SF-539; ACHN; TK-10; RPMI-8226; SF-268; SK-MEL-5; HOP-62; HL-60; MOLT-4; SR.
What all share (experiment): inhibition of tumour cell growth, NCI panel, 48 h

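Compound exposure: 48 hours, 5 concentrations, 96-well plates. GI50 marks 50% less growth.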 Activity calls are given as the source filed them. No stated cut-off is given here; in the data, active = GI50 up to about 1.1 µM and inactive = higher.

`CC(=O)C1C(=O)C(=O)N(CCN2C(=O)C(=O)C(C(C)=O)C2=O)C1=O` (stereo not given): the GI50 with HT-29, with SK-OV-3, in the experiment with UACC-257, in the experiment on HOP-92, with OVCAR-3 and in the experiment with OVCAR-8 was > 100 µM (inactive) throughout. The GI50 with SF-539, in the experiment on ACHN, in the experiment on TK-10, in the experiment on RPMI-8226, with SF-268 and in the experiment with SK-MEL-5 was > 100 µM (inactive) in each case. In addition, the GI50 in the experiment on HOP-62 is > 100 µM (inactive).

Take `O=C1[C@H]2ON(c3ccccc3)C(c3ccccc3)[C@H]2C(=O)N1c1ccc(Cc2ccc(N3C(=O)[C@@H]4ON(c5ccccc5)C(c5ccccc5)[C@@H]4C3=O)cc2)cc1` (stereo not given in full): the GI50 with HT-29, in the experiment with SK-OV-3, in the experiment with UACC-257, in the experiment with HOP-92, in the experiment with OVCAR-3 and in the experiment on SF-539 was > 100 µM (inactive) each time. In addition, the GI50 in the experiment on ACHN, with RPMI-8226, with HL-60, in the experiment with MOLT-4, in the experiment with SF-268 and in the experiment with SK-MEL-5 was > 100 µM (inactive) in each case. Besides, in the experiment with HOP-62, the GI50 is > 100 µM (inactive).

For `COc1cccc(N2C(=O)[C@H]3[C@H]4CC(C(C)(C)C)CC[C@H]4c4c([nH]c5ccccc45)[C@H]3C2=O)c1` (stereo not given in full), the GI50 with HT-29 is 21.3 µM (inactive); with SK-OV-3, 20.8 µM (inactive); in the experiment with UACC-257, 20.6 µM (inactive); in the experiment with OVCAR-3, 15.7 µM (inactive); in the experiment on OVCAR-8, 14.9 µM (inactive); in the experiment with SF-539 it was 23 µM (inactive). Moreover, the GI50 is 15.2 µM (inactive) with TK-10; 15.4 µM (inactive) in the experiment on RPMI-8226; 28 µM (inactive) in the experiment with HL-60; 11.9 µM (inactive) with MOLT-4; 27.3 µM (inactive) with SF-268; 18 µM (inactive) with SK-MEL-5. In the experiment on HOP-62, the GI50 is 17.7 µM (inactive).

Take `CCc1c(OC(C)=O)c2c(NC3OC(COC(C)=O)C(OC(C)=O)C(OC(C)=O)C3OC(C)=O)nc(OC)nc2oc1=O` (stereo not given): the GI50 with HT-29, with SK-OV-3, in the experiment on UACC-257, with OVCAR-3, with OVCAR-8 and in the experiment with SF-539 was > 100 µM (inactive) throughout. Further, the GI50 with ACHN, in the experiment on TK-10, in the experiment on RPMI-8226, in the experiment on HL-60, with MOLT-4 and with SK-MEL-5 was > 100 µM (inactive) throughout. Moreover, the GI50 in the experiment with HOP-62 was > 100 µM (inactive).

Turning to `CC(C)N(C(=O)C12C3C4C5C3C1(C(=O)O)C5C42)C(C)C` (stereo not given), the GI50 in the experiment with HT-29, in the experiment on SK-OV-3, in the experiment on UACC-257, in the experiment on HOP-92, in the experiment with OVCAR-3 and in the experiment on OVCAR-8 was > 100 µM (inactive) each time. Also, the GI50 with SF-539, in the experiment on ACHN, in the experiment on TK-10, in the experiment with RPMI-8226, in the experiment with HL-60 and in the experiment on MOLT-4 was > 100 µM (inactive) throughout. Also, the GI50 with SF-268, in the experiment on SK-MEL-5 and in the experiment on HOP-62 was > 100 µM (inactive) throughout.

Take `c1cnc2nc3n(c2c1)CSC3`: the GI50 with HT-29, in the experiment with SK-OV-3, in the experiment with UACC-257, in the experiment on HOP-92, with OVCAR-3 and in the experiment on OVCAR-8 was > 100 µM (inactive) throughout. For the same compound, the GI50 in the experiment on SF-539, with ACHN, in the experiment with TK-10, in the experiment on RPMI-8226, in the experiment with HL-60 and in the experiment with MOLT-4 was > 100 µM (inactive) throughout. The GI50 in the experiment on SF-268, in the experiment on SK-MEL-5 and in the experiment on HOP-62 was > 100 µM (inactive) throughout.

On to `COc1ccc(CC2NCCc3c2[nH]c2ccccc32)cc1` (stereo not given), for which the GI50 with HT-29 was 28.3 µM (inactive); with SK-OV-3, > 100 µM (inactive); with HOP-92 it was 16 µM (inactive); in the experiment on OVCAR-3, 64.6 µM (inactive); with OVCAR-8, > 100 µM (inactive); in the experiment with SF-539, 42.1 µM (inactive). The GI50 with ACHN was 66.8 µM (inactive); in the experiment with TK-10 it was > 100 µM (inactive); with RPMI-8226, 30.4 µM (inactive); in the experiment on HL-60, 22.4 µM (inactive); with MOLT-4, 31.9 µM (inactive); in the experiment with SF-268, 79.6 µM (inactive). In addition, the GI50 in the experiment with SK-MEL-5 was 40.9 µM (inactive); in the experiment on HOP-62, > 100 µM (inactive).

Turning to `CCOC(=O)Nc1ccc(S(=O)(=O)I)cc1.CCOC(=O)Nc1ccc(S(=O)(=O)I)cc1.CN(C=O)C1=C(N(C)C=O)C(N(C)C=O)=C(N(C)C=O)C(=O)C1=O`, the GI50 with HT-29, in the experiment on SK-OV-3, in the experiment with UACC-257, in the experiment on HOP-92, in the experiment on OVCAR-8 and in the experiment with SF-539 was > 100 µM (inactive) each time. Further, the GI50 in the experiment on ACHN, in the experiment on TK-10, in the experiment on HL-60, in the experiment on MOLT-4, in the experiment with SF-268 and in the experiment on SR was > 100 µM (inactive) each time. Also, the GI50 in the experiment on HOP-62 was > 100 µM (inactive).

As to `Cc1ccc(Nc2nc3c(s2)C(=O)c2ccccc2C3=O)cc1`, the GI50 is 3.18 µM (inactive) with HT-29; 24.9 µM (inactive) in the experiment on SK-OV-3; 1.75 µM (inactive) with UACC-257; 2.86 µM (inactive) in the experiment with HOP-92; 1.52 µM (inactive) with OVCAR-3; 2.18 µM (inactive) in the experiment on OVCAR-8. Further, the GI50 is 5.35 µM (inactive) with SF-539; 1.75 µM (inactive) in the experiment with ACHN; 7.26 µM (inactive) with TK-10; 1.23 µM (inactive) with RPMI-8226; 0.229 µM (active) in the experiment with HL-60; 1.04 µM (active) with MOLT-4. Moreover, the GI50 in the experiment with SF-268 was 1.9 µM (inactive); in the experiment on SK-MEL-5, 1.75 µM (inactive); in the experiment on HOP-62, 7.16 µM (inactive).

As for `C/C(CN1C(=O)c2ccccc2C1=O)=N\NS(=O)(=O)c1ccc(Cl)cc1`, the GI50 with HT-29, in the experiment on UACC-257, with OVCAR-3, in the experiment with OVCAR-8, with SF-539 and with ACHN was > 100 µM (inactive) throughout. The GI50 in the experiment with TK-10, in the experiment on RPMI-8226, with HL-60, in the experiment on MOLT-4, with SK-MEL-5 and in the experiment on SR was > 100 µM (inactive) each time. For the same compound, the GI50 with HOP-62 was > 100 µM (inactive).

As to `Cc1nc2ccccc2c(=O)n1/N=C(\N=N\c1cc(Cl)ccc1Cl)c1cccc(-c2ccco2)c1`, the GI50 in the experiment on HT-29 is > 100 µM (inactive); with SK-OV-3, > 100 µM (inactive); in the experiment with UACC-257, > 100 µM (inactive); in the experiment on HOP-92, 27.6 µM (inactive); with OVCAR-3, > 100 µM (inactive); in the experiment on OVCAR-8, 95.9 µM (inactive). Besides, the GI50 in the experiment with SF-539 is > 100 µM (inactive); with ACHN, 73.6 µM (inactive); with TK-10, > 100 µM (inactive); with RPMI-8226, 42.8 µM (inactive); with HL-60, > 10 µM (inactive); in the experiment with MOLT-4 it was 35.3 µM (inactive). For the same compound, the GI50 was 92 µM (inactive) in the experiment with SF-268, 96.4 µM (inactive) in the experiment with SK-MEL-5 and > 100 µM (inactive) in the experiment on HOP-62.

On to `COc1c(C2=NC(C(C)C)CO2)ccc2ccccc12` (stereo not given), for which the GI50 with HT-29 is 24.3 µM (inactive); in the experiment on SK-OV-3, > 100 µM (inactive); with UACC-257 it was 34.2 µM (inactive); in the experiment on HOP-92, 30.1 µM (inactive); with OVCAR-3, 37.2 µM (inactive); in the experiment with OVCAR-8, 41.5 µM (inactive). For the same compound, the GI50 was 34.8 µM (inactive) in the experiment on SF-539; 42.6 µM (inactive) in the experiment with ACHN; 88.3 µM (inactive) with TK-10; 22.6 µM (inactive) in the experiment with RPMI-8226; 14.6 µM (inactive) in the experiment on HL-60; 14.2 µM (inactive) in the experiment on MOLT-4. For the same compound, the GI50 is 29.6 µM (inactive) in the experiment on SF-268, 14.2 µM (inactive) in the experiment with SK-MEL-5 and 47.8 µM (inactive) with HOP-62.

As to `CC(=O)OC12CCCCC1C1(CCCC1)NC2=O` (stereo not given), the GI50 with HT-29, in the experiment on SK-OV-3, with UACC-257, in the experiment with OVCAR-3, in the experiment on OVCAR-8 and with SF-539 was > 100 µM (inactive) in each case. Also, the GI50 in the experiment on ACHN, with TK-10, in the experiment with RPMI-8226, in the experiment with HL-60, with MOLT-4 and in the experiment on SF-268 was > 100 µM (inactive) throughout. The GI50 in the experiment on SR and in the experiment on HOP-62 was > 100 µM (inactive) each time.

Consider `Cc1ccccc1-n1c2nc(=O)n(C)c(=O)c-2nc2ccccc21`, for which the GI50 is 4.24 µM (inactive) in the experiment with HT-29; 36.9 µM (inactive) with SK-OV-3; 8.73 µM (inactive) in the experiment on UACC-257; 2.33 µM (inactive) in the experiment on OVCAR-3; 12.2 µM (inactive) with OVCAR-8; 15.2 µM (inactive) in the experiment with SF-539. Also, the GI50 in the experiment with ACHN is 8.39 µM (inactive); with TK-10, 12.1 µM (inactive); with RPMI-8226 it was 16.3 µM (inactive); with HL-60 it was 11.1 µM (inactive); with MOLT-4, 17.8 µM (inactive); with SF-268, 12.7 µM (inactive). Also, the GI50 in the experiment with SK-MEL-5 is 10.6 µM (inactive); in the experiment with HOP-62, 38.5 µM (inactive).
